Test results published in ChEMBL document CHEMBL4364293, “Design, Synthesis, and Structure-Activity Relationship of 7-Propanamide Benzoxaboroles as Potent Anticancer Agents” (J Med Chem, 2019).
Active and inactive are the calls of the source. The calls are words filed in the database; no cut-off is given here.

Assays:
[1] = Toxicity in BALB/c mouse xenografted with human SW480 cells assessed as reduction in body weight at 2 to 10 mg/kg, ip administered once daily for 33 days and measured every 3 days during compound dosing; format: organism-based; conditions: in vivo
SW480 [2] = assay: Antitumor activity against human SW480 cells xenografted in ip dosed BALB/c mouse assessed as reduction in tumor volume administered once daily for 33 days and measured every 3 days during compound dosing; format: functional, organism-based
[3] = Half-life in Sprague-Dawley rat at 2 mg/kg, iv by non-compartmental analysis; format: ADME, organism-based; conditions: in vivo
[4] = Selectivity ratio, ratio of IC50 for human WI38 cells to IC50 for human SKOV3 cells; format: toxicity; conditions: WI38 cells versus SKOV3 cells, read-out: Ratio IC50
[5] = Oral bioavailability in Sprague-Dawley rat at 10 mg/kg by non-compartmental analysis; format: ADME, organism-based; conditions: in vivo
[6] = Efflux ratio of apparent permeability from basolateral to apical over apical to basolateral side in human Caco2 cells; format: ADME, cell-based; conditions: Caco-2
SW480 [7] = assay: Antitumor activity against human SW480 cells xenografted in ip dosed BALB/c mouse assessed as reduction in tumor weight administered once daily for 33 days and measured every 3 days during compound dosing; format: functional, organism-based
[8] = Apparent permeability across basolateral to apical side in human Caco2 cells; format: ADME, cell-based; conditions: Caco-2
[9] = Half-life in Sprague-Dawley rat at 10 mg/kg, po by non-compartmental analysis; format: ADME, organism-based; conditions: in vivo
[10] = Tmax in Sprague-Dawley rat at 10 mg/kg, po by non-compartmental analysis; format: ADME, organism-based; conditions: in vivo
HCT-116 = assay: Antiproliferative activity against human HCT116 cells after 72 hrs by MTT assay; format: functional, cell-based; conditions: HCT-116, 72 h
[11] = AUC infinity in Sprague-Dawley rat at 2 mg/kg, iv by non-compartmental analysis; format: ADME, organism-based; parameters: dose 2 mg/kg, time infinity, route intravenous; conditions: in vivo
WI-38 = assay: Cytotoxicity against human WI38 cells after 72 hrs by MTT assay; format: cell-based; conditions: WI-38, 72 h
SK-OV-3 [12] = assay: Antiproliferative activity against human SKOV3 cells after 72 hrs by MTT assay; format: functional, cell-based; conditions: SK-OV-3, 72 h
[13] = AUC infinity in Sprague-Dawley rat at 10 mg/kg, po by non-compartmental analysis; format: ADME, organism-based; parameters: dose 10 mg/kg, time infinity, route oral; conditions: in vivo
[14] = Volume of distribution at steady state in Sprague-Dawley rat at 2 mg/kg, iv by non-compartmental analysis; format: ADME, organism-based; conditions: in vivo, read-out: Vdss
[15] = Cmax in Sprague-Dawley rat at 10 mg/kg, po by non-compartmental analysis; format: ADME, organism-based; parameters: dose 10 mg/kg, route oral; conditions: in vivo
[16] = Apparent permeability across apical to basolateral side in human Caco2 cells; format: ADME, cell-based; conditions: Caco-2
MDA-MB-231 = assay: Antiproliferative activity against human MDA-MB-231 cells after 72 hrs by MTT assay; format: functional, cell-based; conditions: MDA-MB-231, 72 h
[17] = target: Leucine--tRNA ligase, cytoplasmic (Homo sapiens) (UniProt Q9P2J5); assay: Inhibition of human leucyl-tRNA synthetase
Sequence of Leucine--tRNA ligase, cytoplasmic (Homo sapiens) (Q9P2J5 whole entry, looked up): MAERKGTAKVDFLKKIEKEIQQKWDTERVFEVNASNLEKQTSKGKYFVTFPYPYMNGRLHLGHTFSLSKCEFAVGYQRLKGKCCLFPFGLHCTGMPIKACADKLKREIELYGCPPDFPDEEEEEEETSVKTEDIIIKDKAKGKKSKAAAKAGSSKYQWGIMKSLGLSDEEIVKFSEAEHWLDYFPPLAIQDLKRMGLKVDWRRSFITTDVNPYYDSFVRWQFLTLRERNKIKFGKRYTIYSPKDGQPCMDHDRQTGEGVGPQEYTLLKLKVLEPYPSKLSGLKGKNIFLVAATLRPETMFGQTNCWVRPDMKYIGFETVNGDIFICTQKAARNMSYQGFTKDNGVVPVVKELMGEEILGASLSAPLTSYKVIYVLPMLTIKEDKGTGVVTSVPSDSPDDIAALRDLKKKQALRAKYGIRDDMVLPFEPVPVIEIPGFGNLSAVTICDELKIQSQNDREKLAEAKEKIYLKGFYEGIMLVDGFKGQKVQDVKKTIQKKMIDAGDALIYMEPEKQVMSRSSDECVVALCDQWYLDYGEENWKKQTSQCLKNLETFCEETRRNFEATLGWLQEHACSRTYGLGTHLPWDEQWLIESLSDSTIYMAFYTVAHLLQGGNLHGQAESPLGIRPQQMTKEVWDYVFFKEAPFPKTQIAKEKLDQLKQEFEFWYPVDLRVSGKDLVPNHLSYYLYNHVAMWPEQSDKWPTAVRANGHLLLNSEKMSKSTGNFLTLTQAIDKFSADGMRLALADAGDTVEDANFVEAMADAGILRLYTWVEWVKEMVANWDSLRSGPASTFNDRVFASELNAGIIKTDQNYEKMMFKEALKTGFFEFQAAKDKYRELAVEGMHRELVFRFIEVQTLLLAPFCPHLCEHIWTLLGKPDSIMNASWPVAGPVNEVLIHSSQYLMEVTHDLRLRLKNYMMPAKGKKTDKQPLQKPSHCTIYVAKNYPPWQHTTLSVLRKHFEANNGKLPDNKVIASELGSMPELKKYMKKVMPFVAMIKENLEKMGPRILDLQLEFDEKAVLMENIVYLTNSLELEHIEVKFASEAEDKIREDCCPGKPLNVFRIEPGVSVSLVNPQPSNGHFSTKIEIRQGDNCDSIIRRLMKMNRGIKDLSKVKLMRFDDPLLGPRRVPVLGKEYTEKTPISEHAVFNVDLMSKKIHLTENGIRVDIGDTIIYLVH

[18] = Clearance in Sprague-Dawley rat at 2 mg/kg, iv by non-compartmental analysis; format: ADME, organism-based; conditions: in vivo
SK-OV-3 [19] = assay: Induction of apoptosis in human SKOV3 cells assessed as late apoptotic cells at 3 uM after 48 hrs by Annexin V-FITC/propidium iodide staining based FACS analysis (reference value: 5.97%); format: functional
SK-OV-3 [20] = assay: Induction of apoptosis in human SKOV3 cells assessed as necrotic cells at 3 uM after 48 hrs by Annexin V-FITC/propidium iodide staining based FACS analysis (reference value: 1.06%); format: functional
NCI-H460 [21] = assay: Induction of apoptosis in human NCI-H460 cells assessed as increase in cleaved PARP expression at low concentration after 48 hrs by Western blot analysis; format: functional, cell-based
SK-OV-3 [22] = assay: Induction of apoptosis in human SKOV3 cells assessed as necrotic cells at 1 uM after 48 hrs by Annexin V-FITC/propidium iodide staining based FACS analysis (reference value: 1.06%); format: functional
SK-OV-3 [23] = assay: Induction of apoptosis in human SKOV3 cells assessed as viable cells at 10 uM after 48 hrs by Annexin V-FITC/propidium iodide staining based FACS analysis (reference value: 91%); format: functional; conditions: SK-OV-3, 48 h, read-out: Activity
SK-OV-3 [24] = assay: Induction of apoptosis in human SKOV3 cells assessed as late apoptotic cells at 1 uM after 48 hrs by Annexin V-FITC/propidium iodide staining based FACS analysis (reference value: 5.97%); format: functional
SK-OV-3 [25] = assay: Induction of apoptosis in human SKOV3 cells assessed as necrotic cells at 10 uM after 48 hrs by Annexin V-FITC/propidium iodide staining based FACS analysis (reference value: 1.06%); format: functional
SK-OV-3 [26] = assay: Induction of apoptosis in human SKOV3 cells assessed as early apoptotic cells at 10 uM after 48 hrs by Annexin V-FITC/propidium iodide staining based FACS analysis (reference value: 1.95%); format: functional
SK-OV-3 [27] = assay: Induction of apoptosis in human SKOV3 cells assessed as viable cells at 1 uM after 48 hrs by Annexin V-FITC/propidium iodide staining based FACS analysis (reference value: 91%); format: functional; conditions: SK-OV-3, 48 h, read-out: Activity
SK-OV-3 [28] = assay: Induction of apoptosis in human SKOV3 cells assessed as early apoptotic cells at 3 uM after 48 hrs by Annexin V-FITC/propidium iodide staining based FACS analysis (reference value: 1.95%); format: functional
SK-OV-3 [29] = assay: Inhibition of colony formation in human SKOV3 cells at 0.0625 to 1 uM supplemented with fresh medium containing compound every 72 hrs for 2 weeks by crystal violet staining based assay; format: functional, cell-based
NCI-H460 [30] = assay: Induction of apoptosis in human NCI-H460 cells assessed as increase in cleaved caspase-9 expression at low concentration after 48 hrs by Western blot analysis; format: functional, cell-based
SK-OV-3 [31] = assay: Induction of apoptosis in human SKOV3 cells assessed as early apoptotic cells at 1 uM after 48 hrs by Annexin V-FITC/propidium iodide staining based FACS analysis (reference value: 1.95%); format: functional
NCI-H460 [32] = assay: Induction of apoptosis in human NCI-H460 cells assessed as increase in cleaved caspase-3 expression at low concentration after 48 hrs by Western blot analysis; format: functional, cell-based
SK-OV-3 [33] = assay: Induction of apoptosis in human SKOV3 cells after 48 hrs by Annexin V-FITC/propidium iodide staining based FACS analysis (reference value: 1.06%); format: functional, cell-based
SK-OV-3 [34] = assay: Induction of apoptosis in human SKOV3 cells assessed as late apoptotic cells at 10 uM after 48 hrs by Annexin V-FITC/propidium iodide staining based FACS analysis (reference value: 5.97%); format: functional
SK-OV-3 [35] = assay: Induction of apoptosis in human SKOV3 cells assessed as viable cells at 3 uM after 48 hrs by Annexin V-FITC/propidium iodide staining based FACS analysis (reference value: 91%); format: functional; conditions: SK-OV-3, 48 h, read-out: Activity

Row | SMILES | Activity [1] | Activity (SW480 [2]) | half-life [3] | selectivity ratio [4] | bioavailability [5] | efflux ratio [6] | Activity (SW480 [7]) | Papp B→A [8] | half-life [9] | Tmax [10] | IC50 (HCT-116) | AUC(0-inf) [11] | IC50 (WI-38) | IC50 (SK-OV-3 [12]) | AUC(0-inf) [13] | Vd [14] | Cmax [15] | Papp A→B [16] | IC50 (MDA-MB-231) | inhibition [17] | other results
1 | CC(=O)c1ccc(-c2cccc(NC(=O)CCc3cccc4c3B(O)OC4)c2)cc1 | Non-Toxic | Dose-dependent effect | 0.6 h | 180 | 4.6% | 0.56 | Dose-dependent effect | 2.23 ×10⁻⁶ cm/s | 2 h | 0.25 h | 110 nM | 1920 ng·h/mL | 3700 nM | 21 nM | 459 ng·h/mL | 0.882 L/kg | 373 ng/mL | 3.95 ×10⁻⁶ cm/s | 56 nM | inactive | clearance [18]: 17.5 mL/min/kg
2 | COc1cccc(-c2cccc(NC(=O)CCc3cccc4c3B(O)OC4)c2)c1 | Non-Toxic | Dose-dependent effect | 1.4 h | 100 | 19.5% | 1.36 | Dose-dependent effect | 26.5 ×10⁻⁶ cm/s | 2.2 h | 0.2 h | 260 nM | 551 ng·h/mL | 3200 nM | 33 nM | 547 ng·h/mL | 7.63 L/kg | 434 ng/mL | 19.5 ×10⁻⁶ cm/s | 37 nM | inactive | Activity (SK-OV-3 [19]): 17.1%; Activity (SK-OV-3 [20]): 0.593%; Activity (NCI-H460 [21]): Active; Activity (SK-OV-3 [22]): 0.808%; viability at 10 µM (SK-OV-3 [23]): 48.1%; Activity (SK-OV-3 [24]): 15.4%; Activity (SK-OV-3 [25]): 0.505%; Activity (SK-OV-3 [26]): 20.6%; viability at 1 µM (SK-OV-3 [27]): 71%; Activity (SK-OV-3 [28]): 14.5%; inhibition (SK-OV-3 [29]): Active; Activity (NCI-H460 [30]): Active; Activity (SK-OV-3 [31]): 12.8%; Activity (NCI-H460 [32]): Active; Activity (SK-OV-3 [33]): Dose-dependent effect; clearance [18]: 62.5 mL/min/kg; Activity (SK-OV-3 [34]): 30.7%; viability at 3 µM (SK-OV-3 [35]): 67.8%
